Measurements reported in US6413517B1, “Identification of broadly reactive DR restricted epitopes” (Epimmune, Inc., priority 1997, dated 2002).
Like-named read-outs stand apart in the source and are kept apart here. No end group written: not given here.

How the values were obtained:
DRB1*0101 (DR1) = biological target: T1, DRB1*0101 (DR1) (Homo sapiens, UniProt P01903+P01911, A100R/D57E/F55L/F60I/F76Y/I96L/L162R/M171V/P40L/Q125E/R42F/V115G/Y59C); assay: biochemical; format: binding
T1 construct: Epstein-Barr virus (EBV) transformed homozygous cell lines were used as sources; endogenous in cells; host or cells: LG2 (EBV-transformed homozygous B cell line)

DRB5*0101 (DR2w2a) = biological target: T2, DRB5*0101 (DR2w2a) (Homo sapiens, UniProt P01903+Q30154); assay: biochemical; format: binding
T2 construct: Epstein-Barr virus (EBV) transformed homozygous cell lines were used as sources; endogenous in cells; host or cells: GM3107 (EBV-transformed homozygous B cell line)

DRB1*0401 (DR4w4) = biological target: T3, DRB1*0401 (DR4w4) (Homo sapiens, UniProt P01903+P01911, A100K/A169T/F76Y/I96L/K127E/L162R/M171V/N62H/P40V/Q125Y/R42H/S133A/S149N/S66Y/V115G/V209L/W38E); assay: biochemical; format: binding
T3 construct: Epstein-Barr virus (EBV) transformed homozygous cell lines were used as sources; endogenous in cells; host or cells: PREISS (EBV-transformed homozygous B cell line)

DRB1*1302 (DR6w19) = biological target: T4, DRB1*1302 (DR6w19) (Homo sapiens, UniProt P01903+P01911, A100E/A169T/K41T/L162R/M171V/P40S/Q125H/Q178H/Q39Y/Q99D/R42S/S66N/T262R/V115G/W38E/Y61H); assay: biochemical; format: binding
T4 construct: Epstein-Barr virus (EBV) transformed homozygous cell lines were used as sources; the source of Class II molecules the EBV transformed homozygous cell line H0301; endogenous in cells; host or cells: H0301 (EBV-transformed homozygous B cell line)

DRB1*1201 (DR5w12) = biological target: T5, DRB1*1201 (DR5w12) (Homo sapiens, UniProt P01903+P01911, A100R/A169T/D57E/D86V/F55L/H45Y/K41T/L162R/M171V/P40S/Q125H/Q178H/Q39Y/Q99D/R42G/S66L/T262R/V114A/V67L/W38E/Y59H/Y61H/Y89S); assay: biochemical; format: binding
T5 construct: Epstein-Barr virus (EBV) transformed homozygous cell lines were used as sources; endogenous in cells; host or cells: Herluf (EBV-transformed homozygous B cell line)

DRB1*0301 (DR3w17) [1] = biological target: T6, DRB1*0301 (DR3w17) (Homo sapiens, UniProt P01903+P01911, A100K/A102G/A103R/A169T/F55Y/I96L/K41T/L162R/M171V/P40S/Q125H/Q178H/Q39Y/R42S/S66N/T106N/T262R/W38E/Y61H); details: read-out: Binding Capacity (IC 50% nM) Other Alleles DR3
DRB1*0301 (DR3w17) [2] = biological target: T6, DRB1*0301 (DR3w17); assay: biochemical; details: Binding Capacity (IC50% nM) DR3
DRB1*0405 (DR4w15) = biological target: T7, DRB1*0405 (DR4w15) (Homo sapiens, UniProt P01903+P01911, A100R/A169T/D86S/F76Y/I96L/K127E/L162R/M171V/N62H/P40V/Q125Y/R42H/S133A/S149N/S66Y/V115G/V209L/W38E); assay: biochemical; format: binding
T7 construct: Epstein-Barr virus (EBV) transformed homozygous cell lines were used as sources; endogenous in cells; host or cells: KT3 (EBV-transformed homozygous B cell line)

DRB1*1101 (DR5w11) = biological target: T8, DRB1*1101 (DR5w11) (Homo sapiens, UniProt P01903+P01911, A100R/A169T/A87E/I96F/K41T/L162R/M171V/P40S/Q125H/Q178H/Q39Y/Q99D/R42S/S66Y/T262R/V115G/W38E); assay: biochemical; format: binding
T8 construct: Epstein-Barr virus (EBV) transformed homozygous cell lines were used as sources; endogenous in cells; host or cells: SWEIG (EBV-transformed homozygous B cell line)
T8 sequence (P01903 26-254, other chains not shown): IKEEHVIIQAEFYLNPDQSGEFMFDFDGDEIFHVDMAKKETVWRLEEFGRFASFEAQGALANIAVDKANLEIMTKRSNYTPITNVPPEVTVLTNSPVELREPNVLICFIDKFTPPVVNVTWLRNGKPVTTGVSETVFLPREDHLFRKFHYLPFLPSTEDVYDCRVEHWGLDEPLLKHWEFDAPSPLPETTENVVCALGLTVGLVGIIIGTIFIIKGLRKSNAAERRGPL

DRB1*0802 (DR8w2) = biological target: T9, DRB1*0802 (DR8w2) (Homo sapiens, UniProt P01903+P01911, A100R/A103L/A169T/F76Y/H45Y/I96F/K41T/L162R/M171V/P40S/Q125H/Q178H/Q39Y/Q99D/R218S/R42G/S66Y/V115G/W38E); assay: biochemical; format: binding
T9 construct: Epstein-Barr virus (EBV) transformed homozygous cell lines were used as sources; endogenous in cells; host or cells: OLL (EBV-transformed homozygous B cell line)

DRB1*0701 (DR7) = biological target: T10, DRB1*0701 (DR7) (Homo sapiens, UniProt P01903+P01911, A100R/A102G/A103Q/D57E/D86V/E43K/F76Y/K127E/L162R/M171V/P40G/Q125H/Q99D/R33Q/R42Y/R54Q/S133A/S66F/T210M/V115G/Y107V/Y59L/Y89S); assay: biochemical; format: binding
T10 construct: Epstein-Barr virus (EBV) transformed homozygous cell lines were used as sources; endogenous in cells; host or cells: PITOUT (EBV-transformed homozygous B cell line)

DRB1*0901 (DR9) = biological target: T11, DRB1*0901 (DR9) (Homo sapiens, UniProt P01903+P01911, A100R/A103E/D57H/D86V/F55Y/F60I/F76Y/I96F/K127E/L162R/M171V/P40D/Q125H/Q99R/R33Q/R42F/S133A/S66N/T210M/V115G/W38K/Y107V/Y59G/Y89S); assay: biochemical; format: binding
T11 construct: Epstein-Barr virus (EBV) transformed homozygous cell lines were used as sources; endogenous in cells

DRB1*1501 (DR2w2b) = biological target: T12, DRB1*1501 (DR2w2b) (Homo sapiens, UniProt P01903+P01911); assay: biochemical; format: binding
T12 construct: expressed in transfected cells; host or cells: transfected fibroblasts L466.1

[3] = Binding Capacity (IC50% nM) DR1
[4] = Binding Capacity (IC 50% nM) DR1,4,7 DRB1
[5] = Binding Capacity (IC 50% nM) Other Alleles DR2w2a
[6] = Binding Capacity (IC50% nM) DR6w19
[7] = read-out: Binding Capacity (IC 50% nM) Other Alleles DR6w19
[8] = Binding Capacity (IC50% nM) DR5w12
[9] = Binding Capacity (IC50% nM) DR4w15
[10] = Binding Capacity (IC 50% nM) Other Alleles DR4w15
[11] = Binding Capacity (IC50% nM) DR5w11
[12] = read-out: Binding Capacity (IC 50% nM) Other Alleles DR5w11
[13] = Binding Capacity (IC50% nM) DR8w2
[14] = read-out: Binding Capacity (IC 50% nM) Other Alleles DR8w2
[15] = Binding Capacity (IC 50% nM) DR1,4,7 DR7
[16] = Binding Capacity (IC50% nM) DR9
[17] = Binding Capacity (IC 50% nM) Other Alleles DR9
[18] = Binding Capacity (IC50% nM) DR2w2b
[19] = Binding Capacity (IC 50% nM) DR1,4,7 DR4w4
[20] = read-out: Binding Capacity (IC 50% nM) Other Alleles DR5w12
[21] = read-out: Binding Capacity (IC 50% nM) Other Alleles DR2w2b

Compound | IC50 (DRB1*0101 (DR1); [3]) | IC50 (DRB1*0101 (DR1); [4]) | IC50 (DRB5*0101 (DR2w2a); [5]) | IC50 (DRB1*1302 (DR6w19); [6]) | IC50 (DRB1*1302 (DR6w19); [7]) | IC50 (DRB1*1201 (DR5w12); [8]) | IC50 (DRB1*0301 (DR3w17) [1]) | IC50 (DRB1*0301 (DR3w17) [2]) | IC50 (DRB1*0405 (DR4w15); [9]) | IC50 (DRB1*0405 (DR4w15); [10]) | IC50 (DRB1*1101 (DR5w11); [11]) | IC50 (DRB1*1101 (DR5w11); [12]) | IC50 (DRB1*0802 (DR8w2); [13]) | IC50 (DRB1*0802 (DR8w2); [14]) | IC50 (DRB1*0701 (DR7); [15]) | IC50 (DRB1*0901 (DR9); [16]) | IC50 (DRB1*0901 (DR9); [17]) | IC50 (DRB1*1501 (DR2w2b); [18]) | IC50 (DRB1*0401 (DR4w4); [19]) | IC50 (DRB1*1201 (DR5w12); [20]) | further results
GPPTALRSFGFAFGYM [Peptide 1136.29] | 32 nM | < 1000 nM | < 1000 nM | > 10000 nM | > 1000 nM | 1000 nM | > 1000 nM | > 10000 nM | 745 nM | < 1000 nM | 6250 nM | > 1000 nM | 2970 nM | > 1000 nM | < 1000 nM | 183 nM | < 1000 nM | 1.1 nM |  |  | IC50 (DRB5*0101 (DR2w2a); Binding Capacity (IC50% nM) DR2w2a): 468 nM; IC50 (DRB1*0401 (DR4w4); Binding Capacity (IC50% nM) DR4w4): 4330 nM; IC50 (DRB1*0401 (DR4w4); read-out: Binding Capacity (IC 50% nM) DR1,4,7 DR4w4): > 1000 nM; IC50 (DRB1*1201 (DR5w12); Binding Capacity (IC 50% nM) Other Alleles DR5w12): < 1000 nM; IC50 (DRB1*1501 (DR2w2b); Binding Capacity (IC 50% nM) Other Alleles DR2w2b): < 1000 nM
CC(C)C[C@H](NC(=O)[C@H](Cc1c[nH]c2ccccc12)NC(=O)[C@@H](NC(=O)[C@H](Cc1ccccc1)NC(=O)[C@@H](NC(=O)[C@@H]1CCCN1C(=O)[C@H](CC(C)C)NC(=O)[C@H](C)NC(=O)[C@@H]1CCCN1C(=O)[C@H](CC(C)C)NC(=O)[C@H](Cc1ccccc1)NC(=O)[C@H](Cc1ccccc1)NC(=O)[C@H](CCC(N)=O)NC(=O)[C@H](CO)NC(=O)[C@@H](NC(=O)[C@@H](N)CC(C)C)[C@@H](C)O)C(C)C)[C@@H](C)O)C(=O)O [Peptide 1136.16] |  | < 1000 nM | < 1000 nM |  | > 1000 nM |  | > 1000 nM | > 10000 nM |  | < 1000 nM |  | > 1000 nM |  |  | < 1000 nM |  | < 1000 nM |  | < 1000 nM | > 1000 nM | IC50 (DRB1*0802 (DR8w2); Binding Capacity (IC 50% nM) Other Alleles DR8w2): < 1000 nM; IC50 (DRB1*1501 (DR2w2b); [21]): > 1000 nM
RVYQEPQVSPPQRAET [Peptide 1136.59.01a] | 130 nM | < 1000 nM | < 1000 nM | > 10000 nM | > 1000 nM | > 10000 nM | > 1000 nM | > 10000 nM | 3140 nM |  | > 10000 nM | > 1000 nM | > 10000 nM | > 1000 nM |  | > 10000 nM |  | > 10000 nM | < 1000 nM | > 1000 nM | IC50 (DRB1*0405 (DR4w15); read-out: Binding Capacity (IC 50% nM) Other Alleles DR4w15): > 1000 nM; IC50 (DRB1*0701 (DR7); Binding Capacity (IC50% nM) DR7): > 10000 nM; IC50 (DRB1*0701 (DR7); read-out: Binding Capacity (IC 50% nM) DR1,4,7 DR7): > 1000 nM; IC50 (DRB1*0901 (DR9); read-out: Binding Capacity (IC 50% nM) Other Alleles DR9): > 1000 nM; IC50 (DRB1*1501 (DR2w2b); [21]): > 1000 nM
